Starred links: 1 amine or outer side, 2 acyl side, 3 side chain; linkers in the order of their positions; H or OH if unused. Non-standard residues stand in square brackets, D forms with d. No end group written: not given here. Kβ = L-β-lysine, O=C(C[C@H](CCCN[*:3])N[*:1])[*:2]; β3hA = C[C@H](N)CC(=O)O
System: SJL/J mice exhibiting MBP (85-109) induced relapsing remitting form of EAE
Assay: Therapeutic activity in MBP (85-109) induced relapsing remitting EAE, treatment from day 11
Format: in vivo
Conditions: SJL/J mice, RR EAE; for Therapeutic activity in comparison to GA (Therapeutic activity (Analogs) − Therapeutic activity GA) / Therapeutic activity in comparison to J5 (Therapeutic activity (Analogs) − Therapeutic activity (J5)): 0.1 mg daily for two weeks; for Therapeutic activity = % reduction in cumulative clinical disability score: synthetic peptides, 0.1 mg daily for two weeks from day 11 post-immunization
Description: SJL/J and C57BL6/J mice procured from Jackson's laboratory (Bar Harbor, Me.) were maintained under standard housing conditions in the central animal facility at NII as per institutional ethical committee guidelines. 8-10 week old female SJL/J mice were used throughout the study.
To induce RR EAE or chronic progressive EAE, SJL/J or C57BL6/J mice were immunized subcutaneously with 0.2 mg of MBP (85-109) or 0.1 mg MOG (35-55) emulsified in CFA and 200 ng of pertussis toxin was injected intraperitoneally on day 0 and day 2 so as to permeablize the blood brain barrier. All the animals in various experimental groups were scored daily for clinical disability on a scale of 0-6 where 0=no neurological symptoms, 1=limp tail, 2=weakness of hind limbs or ataxia, 3=incomplete paralysis of hind limbs, 4=complete paralysis of hind limbs, 5=complete paralysis of all four limbs, 6=dead. Diseased animals were provided easy access to food and water.
GA, J91, J92, S101, S102, S103 for two weeks and scored for clinical disability.

Row | Substance | Therapeutic activity in comparison to GA (Therapeutic activity (Analogs) − Therapeutic activity GA) | Therapeutic activity in comparison to J5 (Therapeutic activity (Analogs) − Therapeutic activity (J5)) | Therapeutic activity = % reduction in cumulative clinical disability score
1 | EKPKVEAYKAAAAPAβ [Analog S41] | 2.032% | −1.925% | 33.37%
2 | EKPKVEAYKAAAAPAβ^3 [Analog S1] | 2.995% | −0.9626% | 34.33%
3 | EKPKVEAYKAAAAPβ^3Aβ^3 [Analog S2] | 2.139% | −1.818% | 33.48%
4 | EKPKVEAYKAAAAβPAβ [Analog S42] | 3.316% | −0.6417% | 34.65%
5 | EKPKVEAYKAAAAβ^3Pβ^3Aβ^3 [Analog S3] | 5.027% | 1.07% | 36.36%
6 | EKPKVEAYKAAAβAβPAβ [Analog S43] | 9.947% | 5.989% | 41.28%
7 | EKPKVEAYKAAAβ^3Aβ^3Pβ^3Aβ^3 [Analog S4] | 4.492% | 0.5348% | 35.83%
8 | EKPKVEAYKAAβAβAβPAβ [Analog S44] | 15.94% | 11.98% | 47.27%
9 | EKPKVEAYKAAβ^3Aβ^3Aβ^3Pβ^3Aβ^3 [Analog S5] | 11.02% | 7.059% | 42.35%
10 | EKPKVEAYKAβAβAβAβPAβ [Analog S45] | 23.53% | 19.57% | 54.87%
11 | EKPKVEAYKβAβAβAβAβPAβ (EKPKVEAY[Kβ]XXXXPX; not fully specified (residues 10, 11, 12, 13, 15); printed as EKPKVEAYKβAβAβAβAβPAβ) [Analog S46] | 21.93% | 17.97% | 53.26%
12 | EKPKVEAYKβ^3Aβ^3Aβ^3Aβ^3Aβ^3Pβ^3Aβ^3 [Analog S6] | 19.47% | 15.51% | 50.8%
13 | EKPKVEAYβKβAβAβAβAβPAβ [Analog S47] | 20.96% | 17.01% | 52.3%
14 | EKPKVEAYβ^3Kβ^3Aβ^3Aβ^3Aβ^3Aβ^3Pβ^3Aβ^3 [Analog S7] | 22.46% | 18.5% | 53.8%
15 | EKPKVEAYβ^3Kβ^3Aβ^3Aβ^3Aβ^3Aβ^3Pβ^3Aβ^3 [Analog S8] | 23.85% | 19.89% | 55.19%
16 | EKPKVEAβYβKβAβAβAβAβPAβ [Analog S48] | 22.89% | 18.93% | 54.2246%
17 | EKPKVEAβ^3Yβ^3Kβ^3Aβ^3Aβ^3Aβ^3Aβ^3Pβ^3Aβ^3 [Analog S9] | 23.74% | 19.79% | 55.08%
18 | EKPKVEβAβYβKβAβAβAβAβPAβ [Analog S49] | 18.93% | 14.97% | 50.27%

Row | Substance | Therapeutic activity in comparison to GA (Therapeutic activity (Analogs) − Therapeutic activity GA) | Therapeutic activity in comparison to J5 (Therapeutic activity (Analogs) − Therapeutic activity (J5)) | Therapeutic activity = % reduction in cumulative clinical disability score
19 | EKPKVEβ^3Aβ^3Yβ^3Kβ^3Aβ^3Aβ^3Aβ^3Aβ^3Pβ^3Aβ^3 [Analog S10] | 19.89% | 15.94% | 51.23%
20 | EKPKVβEβAβYβKβAβAβAβAβPAβ [Analog S50] | −1.925% | −5.882% | 29.41%
21 | EKPKVβ^3Eβ^3Aβ^3Yβ^3Kβ^3Aβ^3Aβ^3Aβ^3Aβ^3Pβ^3Aβ^3 [Analog S11] | 23.53% | 19.57% | 54.87%
22 | EKPKβVβEβAβYβKβAβAβAβAβPAβ [Analog S51] | −4.92% | −8.877% | 26.42%
23 | EKPKβ^3Vβ^3Eβ^3Aβ^3Yβ^3Kβ^3Aβ^3Aβ^3Aβ^3Aβ^3Pβ^3Aβ^3 [Analog S12] | 25.88% | 21.93% | 57.22%
24 | EKPβ^3Kβ^3Vβ^3Eβ^3Aβ^3Yβ^3Kβ^3Aβ^3Aβ^3Aβ^3Aβ^3Pβ^3Aβ^3 [Analog S13] | 24.71% | 20.75% | 56.04%
25 | EKβPKβVβEβAβYβKβAβAβAβAβPAβ [Analog S52] | −1.604% | −5.5615% | 29.73%
26 | EKβ^3Pβ^3Kβ^3Vβ^3Eβ^3Aβ^3Yβ^3Kβ^3Aβ^3Aβ^3Aβ^3Aβ^3Pβ^3Aβ^3 [Analog S14] | 27.91% | 23.96% | 59.25%
27 | EβKβPKβVβEAYβKβAβAβAβAβPAβ [Analog S54] | −1.6E−06% | −3.957% | 31.3369%
28 | EβKβPKβVβEβAβYβKβAβAβAβAβPAβ [Analog S53] | 0.2139% | −3.743% | 31.5508%
29 | EβKβPKβ^3Vβ^3Eβ^3AβYβ^3Kβ^3AβAβAβAβ^3PAβ [Analog S79] | 28.77% | 24.81% | 60.11%
30 | EβKβPKβ^3Vβ^3Eβ^3AβYβ^3Kβ^3AβAβAβ^3Aβ^3PAβ [Analog S80] | 30.7% | 26.74% | 62.03%
31 | Eβ^3Kβ^3Pβ^3Kβ^3Vβ^3EAYβ^3Kβ^3Aβ^3Aβ^3Aβ^3Aβ^3Pβ^3Aβ^3 [Analog S16] | 28.88% | 24.92% | 60.2139%
32 | KVEAYK (Peptide analog) [Analog J5b, reference compound] | −10.9091% | −14.8663% | 20.43%
33 | KVEAYKAAAA (Peptide analog) [Analog J5a, reference compound] | −2.995% | −6.952% | 28.34%
34 | KVEAYKAAAAβ [Analog S55] | −2.781% | −6.738% | 28.56%
35 | KVEAYKAAAAβ^3 (KVEAYKAAA[β3hA]) [Analog S17] | −2.032% | −5.989% | 29.3%

Reference: patent US20140348861A1, “SYNTHETIC PEPTIDES AND RANDOM COPOLYMERS FOR THE TREATMENT OF AUTOIMMUNE DISORDERS” (NATIONAL INSTITUTE OF IMMUNOLOGY, priority 2011, published 2014)
